These are literature values, as cited in patent US10792481B2, “Implantable drug delivery device” (Nano Precision Medical, Inc., priority 2014, dated 2020).

For the series the following is noted: 37° C., 0.2 atmosphere partial pressure.

As for `O=O` [oxygen], the “solubility of oxygen in water” value is listed as “about 7 mg/liter”.
